Data published in US20220372040A1, “METTL3 MODULATORS” (Accent Therapeutics, Inc., priority 2020, published 2022).

Tests used:
[1] = tested on: m^6 A in cellular mRNA of MOLM-13 cells; assay: m^6 A-mRNA LC-MS/MS assay (m^6 A cellular assay); assay type: cell-based; settings: Homo sapiens, 24 hours incubation, LC-MS/MS of m^6 A/A in mRNA
Method: m^6 A-mRNA LC-MS/MS Assay
5×10^6 MOLM-13 (DSMZ) cells were seeded into 10 cm dishes in RPMI 1640 media containing 10% fetal bovine serum and placed in a humidified tissue culture incubator at 37° C. overnight. Compounds were resuspended in 100% DMSO and dosed into each dish at a fixed concentration to comprise an 8-point dose response with a 4-fold serial dilution ranging from 25 μM to 1.5 nM in 0.25% DMSO final and allowed to incubate for 24 hours in a humidified tissue culture incubator at 37° C. Cells were harvested by centrifugation followed by mRNA extraction using DTRECT Dynabeads mRNA DTRECT kit (Life Technologies). mRNA was quantified on NanoDrop spectrophotometer (Thermo Fisher Scientific) and digested into single nucleosides using Nucleoside Digestion Mix (New England Biolabs). Nucleosides are quantified with retention time on a BEH […] column (Waters) and the nucleoside-to-base ion mass transition of 282.1-150.1 (m^6 A) and 268-136 (A) on an API 6500+ triple quadrupole mass spectrometer. Quantification is performed in comparison with the standard curve, obtained from pure nucleoside standards (Selleck Chemicals) running with the same batch of samples. Percentage m^6 A in cellular mRNA is calculated as 100*(m^6 A/A).

MOLM-13 cells = assay: MOLM-13 96 Hour cell proliferation assay (Cell Titer-Glo); assay type: cell-based; settings: Homo sapiens
Method: MOLM-13 96 Hour Cell Proliferation Assay
MOLM-13 (DSMZ) cells were seeded at 600 cells per well in a volume of 44 μL in a Greiner Bio-One CELLSTAR™ 384 Well Polystyrene Cell Culture clear bottom microplate in RPMI 1640 media containing 10% fetal bovine serum using a Multidrop Combi (ThermoFisher Scientific). Cells were incubated overnight at 37° C. in a humidified tissue culture incubator. To prevent evaporation or to reduce edge effect, add 50 μL or more H2O to an empty plate, cover, and place on top of the cell plates. The Mosquito® HTS Liquid Handler was used to make a compound/media intermediate plate by aliquoting 1 μL of compound from the initial compound dilution plate (concentrations ranging from 10.0 mM to 38.0 nM in 100% DMSO) into Bio-One 384-well polypropylene conical bottom microplate containing 49 μL of media containing the appropriate serum (50-fold dilution, 2% DMSO, compound concentrations ranging from 200.0 μM and […]). The Apricot liquid handling system was used to transfer 6.2 μL compounds from the intermediate plate into the seeding plate containing 44 μL cells (8-fold dilution spanning concentrations 25.0 μM to […], 0.25% DMSO final), and placed in a humidified tissue culture incubator at 37° C. After 96 hours, 25 μL of Cell Titer-Glo reagent (Promega) was added to each well using an Integra liquid handling system. The plate was protected from light using TopSeal-A (Black) film over the entire plate, added White Bottom seal film on the bottom of the entire plate for a better reading on the Envision, and placed on an IKA plate shaker for at 300 rpm for 10 minutes at room temperature. The plate was read on an EnVision plate reader (Perkin Elmer) using the Ultra Sensitive Luminescence protocol. Data analysis was performed by normalizing the raw luminescence units to an average of the positive control values for staurosporine (100% cell death) and the negative control values for DMSO (0% cell death). An IC50 was calculated using a 4-parameter logistic nonlinear regression model in GraphPad Prism.

PRMT5-MEP50 = PRMT5-MEP50 (Homo sapiens, UniProt O14744); assay: PRMT5 assay (3H-SAM flashplate scintillation); assay type: biochemical; settings: PRMT5-MEP50 2.5 nM, histone H4 peptide 100 nM, 3H-SAM 250 nM, 60 min
Outline: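 PRMT5-MEP50 (2.5 nM final) preincubated 5 min with compound, then reacted 60 min at ambient temperature with 100 nM biotinylated N-acetyl histone H4 peptide and 250 nM 3H-SAM in 20 mM Tris-HCl pH 8.0, 1 mM DTT, 0.01% Tween. Quenched with 15 μM cold SAM; methylated peptide captured on streptavidin flashplates, scintillation counted.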

METTL3/METTL14 = METTL3/METTL14 (Homo sapiens, UniProt Q86U44); assay: METTL3-14 standard enzyme assay (3H-SAM flashplate scintillation); assay type: biochemical; settings: METTL3/METTL14 2.5 nM, RNA 100 nM, 3H-SAM 100 nM, 30 min
Outline: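 METTL3/METTL14 (2.5 nM final) preincubated 5 min with compound in 20 mM HEPES pH 7.5, 50 mM KCl, 250 μM MgCl2, 1 mM DTT, ambient temperature; started with 100 nM 3′-biotinylated RNA (UCUGGACUAAA) and 100 nM 3H-SAM. After 30 min, quenched with 15 μM cold SAM; methylated RNA captured on streptavidin flashplates and counted by scintillation.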

METTL1/WDR4 = METTL1/WDR4 (Homo sapiens, UniProt Q9UBP6); assay: METTL1 assay (3H-SAM flashplate scintillation); assay type: biochemical; settings: METTL1/WDR4 6.25 nM, RNA 25 nM, 3H-SAM 60 nM, 20 min; read-out: METTL1 IC50
Outline: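 Radiometric methyltransfer by METTL1/WDR4 (6.25 nM f.c., 5 min preincubation) at ambient temperature in HEPES pH 7.5, KCl, MgCl2, DTT; started with 25 nM 3′-biotinylated RNA and 60 nM 3H-SAM, run 20 min, quenched with 15 μM cold SAM. Product captured on streptavidin flashplates (2 h, 25° C), counted by scintillation.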

METTL16 = target: T1, METTL16 (Homo sapiens, UniProt Q86W50); assay: METTL16 assay (3H-SAM flashplate scintillation); assay type: biochemical; settings: METTL16 100 nM, RNA 50 nM, 3H-SAM 200 nM, SAM 800 nM, 20 min
T1 sequence (Q86W50 1-562): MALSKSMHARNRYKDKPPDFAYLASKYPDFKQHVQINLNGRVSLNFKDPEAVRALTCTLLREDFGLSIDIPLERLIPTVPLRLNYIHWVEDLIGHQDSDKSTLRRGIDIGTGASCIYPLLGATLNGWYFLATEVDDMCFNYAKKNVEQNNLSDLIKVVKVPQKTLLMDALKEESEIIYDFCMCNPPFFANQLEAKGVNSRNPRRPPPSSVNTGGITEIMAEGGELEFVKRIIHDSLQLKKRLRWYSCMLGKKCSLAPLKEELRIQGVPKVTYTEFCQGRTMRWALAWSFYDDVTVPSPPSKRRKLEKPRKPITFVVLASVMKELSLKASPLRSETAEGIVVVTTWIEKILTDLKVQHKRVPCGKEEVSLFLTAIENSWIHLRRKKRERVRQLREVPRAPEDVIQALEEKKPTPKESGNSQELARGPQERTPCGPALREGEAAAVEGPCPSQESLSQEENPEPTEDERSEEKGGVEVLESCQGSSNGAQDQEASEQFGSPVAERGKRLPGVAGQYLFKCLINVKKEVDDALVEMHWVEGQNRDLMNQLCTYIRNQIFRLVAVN
Outline: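 Radiometric methyltransferase reaction at ambient temperature in 20 mM HEPES pH 7.5, 50 mM KCl, 1 mM DTT, with 100 nM enzyme preincubated 5 min with compound. It was started with 50 nM 3′-biotinylated RNA, 200 nM 3H-SAM plus 800 nM cold SAM, run 20 min, then quenched with excess cold SAM. Product was captured on streptavidin flashplates and scintillation-counted.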

Sequence of PRMT5-MEP50 (O14744 whole entry): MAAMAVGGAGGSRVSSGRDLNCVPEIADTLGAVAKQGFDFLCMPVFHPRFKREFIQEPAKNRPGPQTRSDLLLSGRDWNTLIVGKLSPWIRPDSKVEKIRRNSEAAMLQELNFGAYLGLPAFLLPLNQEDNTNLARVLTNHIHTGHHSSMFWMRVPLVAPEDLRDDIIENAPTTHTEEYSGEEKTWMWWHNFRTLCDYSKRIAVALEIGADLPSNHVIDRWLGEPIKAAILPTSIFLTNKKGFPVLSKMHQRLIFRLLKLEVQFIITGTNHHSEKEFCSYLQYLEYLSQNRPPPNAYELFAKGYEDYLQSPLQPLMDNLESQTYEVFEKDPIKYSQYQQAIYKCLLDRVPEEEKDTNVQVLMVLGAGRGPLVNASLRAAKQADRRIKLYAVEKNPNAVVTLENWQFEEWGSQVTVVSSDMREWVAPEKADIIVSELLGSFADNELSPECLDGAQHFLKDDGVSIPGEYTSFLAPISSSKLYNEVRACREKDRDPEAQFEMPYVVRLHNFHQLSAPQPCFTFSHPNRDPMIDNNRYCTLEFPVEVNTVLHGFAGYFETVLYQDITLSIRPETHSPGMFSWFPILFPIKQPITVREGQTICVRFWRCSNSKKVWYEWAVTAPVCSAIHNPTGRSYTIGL
Sequence of PRMT5-MEP50 (Q9BQA1 whole entry partner): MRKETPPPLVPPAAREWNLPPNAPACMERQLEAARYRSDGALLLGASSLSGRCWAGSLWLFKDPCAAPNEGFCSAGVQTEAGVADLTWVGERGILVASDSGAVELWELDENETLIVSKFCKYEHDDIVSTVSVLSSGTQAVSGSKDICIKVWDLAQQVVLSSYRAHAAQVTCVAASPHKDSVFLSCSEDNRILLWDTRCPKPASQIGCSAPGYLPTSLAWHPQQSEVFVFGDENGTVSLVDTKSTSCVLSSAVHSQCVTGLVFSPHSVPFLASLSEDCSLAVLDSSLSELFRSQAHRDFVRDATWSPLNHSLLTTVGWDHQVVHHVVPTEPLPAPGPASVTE
Sequence of METTL1/WDR4 (Q9UBP6 whole entry, species assumed): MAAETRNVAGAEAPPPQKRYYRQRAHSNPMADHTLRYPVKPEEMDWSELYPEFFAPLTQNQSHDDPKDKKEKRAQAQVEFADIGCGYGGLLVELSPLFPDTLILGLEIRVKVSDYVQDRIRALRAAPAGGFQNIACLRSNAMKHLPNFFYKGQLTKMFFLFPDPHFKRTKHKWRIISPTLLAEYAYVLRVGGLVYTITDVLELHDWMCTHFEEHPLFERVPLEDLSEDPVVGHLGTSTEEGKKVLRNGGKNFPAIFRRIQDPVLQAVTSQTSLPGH
Sequence of METTL1/WDR4 (P57081 whole entry partner, species assumed): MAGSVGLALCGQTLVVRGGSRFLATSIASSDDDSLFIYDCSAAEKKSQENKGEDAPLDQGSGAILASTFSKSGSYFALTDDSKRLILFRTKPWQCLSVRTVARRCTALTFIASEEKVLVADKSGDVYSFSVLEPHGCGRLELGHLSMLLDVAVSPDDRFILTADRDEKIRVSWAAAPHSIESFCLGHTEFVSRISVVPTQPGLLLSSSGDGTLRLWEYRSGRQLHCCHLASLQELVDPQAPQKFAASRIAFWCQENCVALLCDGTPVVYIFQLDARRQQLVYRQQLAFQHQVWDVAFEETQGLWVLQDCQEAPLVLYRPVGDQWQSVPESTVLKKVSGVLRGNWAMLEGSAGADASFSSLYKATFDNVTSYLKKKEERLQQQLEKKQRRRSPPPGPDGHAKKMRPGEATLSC
Sequence of METTL3/METTL14 (Q86U44 whole entry, species assumed): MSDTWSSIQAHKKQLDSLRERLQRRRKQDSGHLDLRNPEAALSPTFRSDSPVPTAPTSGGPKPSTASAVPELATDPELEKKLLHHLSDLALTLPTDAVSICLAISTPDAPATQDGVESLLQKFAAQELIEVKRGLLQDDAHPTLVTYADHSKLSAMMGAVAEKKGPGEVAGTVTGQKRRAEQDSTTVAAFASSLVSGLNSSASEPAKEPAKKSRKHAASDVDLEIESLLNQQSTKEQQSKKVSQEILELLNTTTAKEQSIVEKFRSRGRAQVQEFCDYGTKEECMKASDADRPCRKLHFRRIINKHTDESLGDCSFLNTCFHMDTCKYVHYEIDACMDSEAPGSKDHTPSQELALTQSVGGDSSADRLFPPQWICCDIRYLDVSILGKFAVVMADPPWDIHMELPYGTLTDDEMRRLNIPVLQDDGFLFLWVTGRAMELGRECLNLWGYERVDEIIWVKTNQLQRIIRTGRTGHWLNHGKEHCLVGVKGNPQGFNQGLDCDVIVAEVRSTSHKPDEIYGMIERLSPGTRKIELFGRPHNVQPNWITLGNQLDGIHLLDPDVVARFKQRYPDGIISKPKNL
Sequence of METTL3/METTL14 (Q9HCE5 whole entry partner, species assumed): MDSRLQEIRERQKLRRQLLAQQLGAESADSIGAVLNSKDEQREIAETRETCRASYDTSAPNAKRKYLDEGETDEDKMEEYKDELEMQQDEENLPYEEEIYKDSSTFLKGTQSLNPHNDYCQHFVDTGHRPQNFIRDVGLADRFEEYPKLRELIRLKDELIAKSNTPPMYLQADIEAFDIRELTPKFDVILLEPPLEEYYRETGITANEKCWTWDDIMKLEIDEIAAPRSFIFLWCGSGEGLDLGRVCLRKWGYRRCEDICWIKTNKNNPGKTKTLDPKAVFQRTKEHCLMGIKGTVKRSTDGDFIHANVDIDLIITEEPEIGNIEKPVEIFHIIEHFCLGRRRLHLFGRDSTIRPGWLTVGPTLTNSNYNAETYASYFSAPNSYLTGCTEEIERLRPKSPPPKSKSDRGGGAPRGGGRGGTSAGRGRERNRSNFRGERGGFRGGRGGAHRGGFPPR

Structure (SMILES) | IC50 [1] | IC50 (MOLM-13 cells) | IC50 (PRMT5-MEP50) | IC50 (METTL3/METTL14) | IC50 (METTL1/WDR4) | IC50 (METTL16)
CCc1cc(N2CCOCC2)c2ccc(OCc3cncc(-n4ccc5c(N)ncnc54)c3)cc2n1 [Compound I-108] | 1 to 10 µM | 1 to 10 µM | > 1 µM | < 0.01 µM | – | –
CN(C)CCNc1cc(C2CCC2)nc2cc(OCc3cncc(-n4ccc5c(N)ncnc54)c3)ccc12 [Compound I-92] | 1 to 10 µM | < 1 µM | > 1 µM | < 0.01 µM | > 1 µM | –
CNc1ccc2ccc(CCc3cncc(-n4cc(C5CCCC5)c5c(N)ncnc54)n3)cc2n1 [Compound I-110] | 1 to 10 µM | – | > 1 µM | < 0.01 µM | > 1 µM | > 1 µM
CCc1cc(N)c2ccc(OCc3cncc(-n4cc(Cl)c5c(N)ncnc54)c3)cc2n1 [Compound I-52] | ≥ 10 µM | – | > 1 µM | < 0.01 µM | – | > 1 µM
CC(C)c1cc(N2CCNCC2)c2ccc(OCc3cncc(-n4ccc5c(N)ncnc54)c3)cc2n1 [Compound I-95] | 1 to 10 µM | < 1 µM | > 1 µM | < 0.01 µM | > 1 µM | –
CNc1cc(CCCN2CCOCC2)c2ccc(OCc3cncc(-n4ccc5c(N)ncnc54)c3)cc2n1 [Compound I-233] | ≥ 10 µM | 1 to 10 µM | > 1 µM | < 0.01 µM | – | –
CNc1ccc2ccc(OCc3cncc(-n4cc(-c5ccc(CNCCS(C)(=O)=O)o5)c5c(N)ncnc54)c3)cc2n1 [Compound I-236] | 1 to 10 µM | 1 to 10 µM | – | < 0.01 µM | – | –
Nc1ncnc2c1c([C@@H]1CCCO1)cn2-c1cncc(COc2ccc3ccc(N4CCC4)nc3c2)c1 [Compound I-145] | < 1 µM | < 1 µM | – | < 0.01 µM | – | –
CNc1ccc2ccc(OCc3cncc(-n4cc(Cl)c5c(N)ncnc54)n3)cc2n1 [Compound I-20] | 1 to 10 µM | – | > 1 µM | < 0.01 µM | > 1 µM | –

Continued, in another order:

IC50 [1] | IC50 (MOLM-13 cells) | IC50 (PRMT5-MEP50) | IC50 (METTL3/METTL14) | Structure (SMILES) | IC50 (METTL1/WDR4) | IC50 (METTL16)
< 1 µM | < 1 µM | > 1 µM | < 0.01 µM | CCNc1ccc2ccc(CCc3cncc(-n4cc(-c5ccn(C)n5)c5c(N)ncnc54)c3)cc2n1 [Compound I-106] | – | –
1 to 10 µM | < 1 µM | – | < 0.01 µM | CCc1cc(N(C)C2CC2)c2ccc(OCc3cncc(-n4cc(-c5ccn(C)n5)c5c(N)ncnc54)c3)cc2n1 [Compound I-136] | – | –
1 to 10 µM | < 1 µM | – | < 0.01 µM | CCc1cc(NC)c2ccc(OCc3cncc(-n4cc(-c5ccn(C)n5)c5c(N)ncnc54)c3)cc2n1 [Compound I-135] | – | –
1 to 10 µM | < 1 µM | – | < 0.01 µM | CCc1cc(N(C)CC2CC2)c2ccc(OCc3cncc(-n4cc(-c5ccn(C)n5)c5c(N)ncnc54)c3)cc2n1 [Compound I-137] | – | –
≥ 10 µM | 1 to 10 µM | – | < 0.01 µM | CCc1cc(NCCN(C)C)c2c(F)cc(OCc3cncc(-n4cc(-c5ccn(C)n5)c5c(N)ncnc54)c3)cc2n1 [Compound I-230] | – | –
< 1 µM | < 1 µM | > 1 µM | < 0.01 µM | Cn1ccc(-c2cn(-c3cncc(CCc4ccc5ccc(N6CCC6)nc5c4)c3)c3ncnc(N)c23)n1 [Compound I-104] | – | –
≥ 10 µM | < 1 µM | – | < 0.01 µM | CCc1cc(N(C)C)c2ccc(OCc3cncc(-n4cc(-c5ccn(C)n5)c5c(N)ncnc54)c3)cc2n1 [Compound I-147] | – | –
1 to 10 µM | < 1 µM | – | < 0.01 µM | CCc1cc(NCCOC)c2ncc(OCc3cncc(-n4cc(-c5ccn(C)n5)c5c(N)ncnc54)c3)cc2n1 [Compound I-138] | – | –
1 to 10 µM | < 1 µM | – | < 0.01 µM | CCc1cc(N(C)CCN(C)C)c2ccc(CCc3cncc(-n4cc(-c5ccn(C)n5)c5c(N)ncnc54)c3)cc2n1 [Compound I-155] | – | –
1 to 10 µM | < 1 µM | – | < 0.01 µM | CCc1cc(NCCN(C)C)c2c(F)cc(CCc3cncc(-n4cc(-c5ccn(C)n5)c5c(N)ncnc54)c3)cc2n1 [Compound I-227] | – | –
